# Key:
# Assay type in all cases: cell-based
# [1] = tested on: E. coli DH5α; assay: Antibacterial activity: MIC and growth curve against E. coli DH5α in 96-well plate; settings: minimal inhibitory concentration against E. coli DH5α; 96-well plate, 5×10^5 CFU/mL, 37° C., judged after 8 h
# Procedure, shortened: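 Log-phase bacteria (OD600 ~0.5) resuspended in LB at 5×10^5 CFU/mL, exposed to recombinant protein at 50, 25, 12.5 μg/mL final in triplicate, 37 °C shaking at 175 rpm. OD600 read every 30 min; MIC is lowest concentration showing no growth.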
# [2] = tested on: E. coli BL21; assay: MIC against Gram-negative bacteria: E. coli BL21; settings: 5×10^5 CFU/mL
# Procedure, shortened: (§1)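 Bacteria grown in LB at 37° C with shaking to McFarland 0.5, pelleted and resuspended in fresh LB, then seeded at 5×10^5 CFU/mL per well. Purified recombinant human EGF domain proteins were two-fold serially diluted in triplicate and plates shaken at 37° C, 175 rpm. MIC is the lowest protein concentration with no bacterial growth.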
# [3] = tested on: Pseudomonas aeruginosa; assay: MIC against Gram-negative bacteria: Pseudomonas aeruginosa; settings: 5×10^5 CFU/mL
# Procedure, shortened: as §1
# [4] = tested on: Klebsiella pneumonia; assay: MIC against Gram-negative bacteria: Klebsiella pneumonia; settings: 5×10^5 CFU/mL
# Procedure, shortened: as §1
# [5] = tested on: Enterobacter cloacae; assay: MIC against Gram-negative bacteria: Enterobacter cloacae; settings: 5×10^5 CFU/mL
# Procedure, shortened: as §1
# [6] = tested on: Aeromonas hydrophila; assay: MIC against Gram-negative bacteria: Aeromonas hydrophila; settings: 5×10^5 CFU/mL
# Procedure, shortened: as §1
# [7] = tested on: Citrobacter diversus; assay: MIC against Gram-negative bacteria: Citrobacter diversus; settings: 5×10^5 CFU/mL
# Procedure, shortened: as §1
# [8] = tested on: Moraxella catarrhalis; assay: MIC against Gram-negative bacteria: Moraxella catarrhalis; settings: 5×10^5 CFU/mL
# Procedure, shortened: as §1
# [9] = tested on: Proteus mirabilis; assay: MIC against Gram-negative bacteria: Proteus mirabilis; settings: 5×10^5 CFU/mL
# Procedure, shortened: as §1
# [10] = tested on: Proteus vulgaris; assay: MIC against Gram-negative bacteria: Proteus vulgaris; settings: 5×10^5 CFU/mL
# Procedure, shortened: as §1
# [11] = tested on: Serratia marcescens; assay: MIC against Gram-negative bacteria: Serratia marcescens; settings: 5×10^5 CFU/mL
# Procedure, shortened: as §1
# [12] = E. coli BL21, 96-well plate, 37° C., 10 h
# [13] = Pseudomonas aeruginosa, 96-well plate, 37° C., 10 h
# [14] = Klebsiella pneumonia, 96-well plate, 37° C., 10 h
# [15] = Enterobacter cloacae, 96-well plate, 37° C., 10 h
# [16] = Aeromonas hydrophila, 96-well plate, 37° C., 10 h
# [17] = Citrobacter diversus, 96-well plate, 37° C., 10 h
# [18] = Moraxella catarrhalis, 96-well plate, 37° C., 10 h
# [19] = Proteus mirabilis, 96-well plate, 37° C., 10 h
# [20] = Proteus vulgaris, 96-well plate, 37° C., 10 h
# [21] = Serratia marcescens, 96-well plate, 37° C., 10 h
# [22] = E. coli BL21, 10 h cultivation at 37° C.
# [23] = Pseudomonas aeruginosa, 10 h cultivation at 37° C.
# [24] = Klebsiella pneumonia, 10 h cultivation at 37° C.
# [25] = Enterobacter cloacae, 10 h cultivation at 37° C.
# [26] = Aeromonas hydrophila, 10 h cultivation at 37° C.
# [27] = Citrobacter diversus, 10 h cultivation at 37° C.
# [28] = Moraxella catarrhalis, 10 h cultivation at 37° C.
# [29] = Proteus mirabilis, 10 h cultivation at 37° C.
# [30] = Proteus vulgaris, 10 h cultivation at 37° C.
# [31] = Serratia marcescens, 10 h cultivation at 37° C.
# [32] = P. aeruginosa, 10 h cultivation at 37° C.
# [33] = K. pneumonia, 10 h cultivation at 37° C.
# [34] = E. cloacae, 10 h cultivation at 37° C.
# [35] = A. hydrophila, 10 h cultivation at 37° C.
# [36] = C. diversus, 10 h cultivation at 37° C.
# [37] = M. catarrhalis, 10 h cultivation at 37° C.
# [38] = P. mirabilis, 10 h cultivation at 37° C.
# [39] = P. vulgaris, 10 h cultivation at 37° C.
# [40] = S. marcescens, 10 h cultivation at 37° C.
substance,measurement,setting,value
PRT1290 (KCNPCLSNPCKNDGTCNSDPVDFYRCTCPYGFKGQDCD; listed as Homo sapiens),MIC,[1],50 µg/mL
same,MIC against E. coli BL21,[2]; [12],12.5 µg/mL
same,MIC against P. aeruginosa,[3]; [13],50 µg/mL
same,MIC against K. pneumonia,[4]; [14],12.5 µg/mL
same,MIC against E. cloacae,[5]; [15],50 µg/mL
same,MIC against A. hydrophila,[6]; [16],25 µg/mL
same,MIC against C. diversus,[7]; [17],12.5 µg/mL
same,MIC against M. catarrhalis,[8]; [18],25 µg/mL
same,MIC against P. mirabilis,[9]; [19],50 µg/mL
same,MIC against P. vulgaris,[10]; [20],12.5 µg/mL
same,MIC against S. marcescens,[11]; [21],12.5 µg/mL
PRT1380 (SQRSCPRGCSQRGRCEGGRCVCDPGYTGDDC; listed as Homo sapiens),MIC,[1],25 µg/mL
same,MIC against E. coli BL21,[2]; [22],50 µg/mL
same,MIC against P. aeruginosa,[3]; [23],12.5 µg/mL
same,MIC against K. pneumonia,[4]; [24],50 µg/mL
same,MIC against E. cloacae,[5]; [25],12.5 µg/mL
same,MIC against A. hydrophila,[6]; [26],50 µg/mL
same,MIC against C. diversus,[7]; [27],12.5 µg/mL
same,MIC against M. catarrhalis,[8]; [28],50 µg/mL
same,MIC against P. mirabilis,[9]; [29],50 µg/mL
same,MIC against P. vulgaris,[10]; [30],50 µg/mL
same,MIC against S. marcescens,[11]; [31],50 µg/mL
PRT423 (QPNTCKDNGPCKQVCSTVGGSAICSCFPGYAIMADGVSCE; listed as Homo sapiens),MIC,[1],12.5 µg/mL
same,MIC,[2]; [22],25 µg/mL
same,MIC,[3]; [32],12.5 µg/mL
same,MIC,[4]; [33],25 µg/mL
same,MIC,[5]; [34],50 µg/mL
same,MIC,[6]; [35],25 µg/mL
same,MIC,[7]; [36],12.5 µg/mL
same,MIC,[8]; [37],25 µg/mL
same,MIC,[9]; [38],50 µg/mL
same,MIC,[10]; [39],25 µg/mL
same,MIC,[11]; [40],12.5 µg/mL
PRT1361 (SELICPNDCFDRGRCINGTCYCEEGFTGEDCG; listed as Homo sapiens),MIC,[1],25 µg/mL
same,MIC against E. coli BL21,[2]; [22],12.5 µg/mL
same,MIC against P. aeruginosa,[3]; [23],25 µg/mL
same,MIC against K. pneumonia,[4]; [24],50 µg/mL
same,MIC against E. cloacae,[5]; [25],12.5 µg/mL
same,MIC against A. hydrophila,[6]; [26],25 µg/mL
same,MIC against C. diversus,[7]; [27],50 µg/mL
same,MIC against M. catarrhalis,[8]; [28],25 µg/mL
same,MIC against P. mirabilis,[9]; [29],12.5 µg/mL
same,MIC against P. vulgaris,[10]; [30],25 µg/mL
same,MIC against S. marcescens,[11]; [31],50 µg/mL
PRT35 (AMDLCARRLLDPCEHQCDPETGRREHRAAGECLCYEGYMKDPVHKHLCI; listed as Homo sapiens),MIC,[1],12.5 µg/mL
same,MIC (μg/mL) E. coli BL21,[2]; [12],50 µg/mL
same,MIC (μg/mL) P. aeruginosa,[3]; [13],25 µg/mL
same,MIC (μg/mL) K. pneumonia,[4]; [14],12.5 µg/mL
same,MIC (μg/mL) E. cloacae,[5]; [15],50 µg/mL
same,MIC (μg/mL) A. hydrophila,[6]; [16],25 µg/mL
same,MIC (μg/mL) C. diversus,[7]; [17],12.5 µg/mL
same,MIC (μg/mL) M. catarrhalis,[8]; [18],50 µg/mL
same,MIC (μg/mL) P. mirabilis,[9]; [19],12.5 µg/mL
same,MIC (μg/mL) P. vulgaris,[10]; [20],25 µg/mL
same,MIC (μg/mL) S. marcescens,[11]; [21],12.5 µg/mL
PRT1339 (EINNCLLPSAGGCHDNASCLYVGPGQNECECKKGFRGNGIDCE; listed as Homo sapiens),MIC,[1],25 µg/mL
same,MIC against E. coli BL21,[2]; [12],12.5 µg/mL
same,MIC against P. aeruginosa,[3]; [13],12.5 µg/mL
same,MIC against K. pneumonia,[4]; [14],25 µg/mL
same,MIC against E. cloacae,[5]; [15],12.5 µg/mL
same,MIC against A. hydrophila,[6]; [16],50 µg/mL
same,MIC against C. diversus,[7]; [17],25 µg/mL
same,MIC against M. catarrhalis,[8]; [18],12.5 µg/mL
same,MIC against P. mirabilis,[9]; [19],25 µg/mL
same,MIC against P. vulgaris,[10]; [20],50 µg/mL
same,MIC against S. marcescens,[11]; [21],25 µg/mL
PRT1201 (DIDECALRTHTCWNDSACINLAGGFDCLCPSGPSCS; listed as Homo sapiens),MIC,[1],12.5 µg/mL
same,MIC against E. coli BL21,[2]; [12],50 µg/mL
same,MIC against P. aeruginosa,[3]; [13],12.5 µg/mL
same,MIC against K. pneumonia,[4]; [14],25 µg/mL
same,MIC against E. cloacae,[5]; [15],50 µg/mL
same,MIC against A. hydrophila,[6]; [16],25 µg/mL
same,MIC against C. diversus,[7]; [17],12.5 µg/mL
same,MIC against M. catarrhalis,[8]; [18],50 µg/mL
same,MIC against P. mirabilis,[9]; [19],25 µg/mL
same,MIC against P. vulgaris,[10]; [20],12.5 µg/mL
same,MIC against S. marcescens,[11]; [21],25 µg/mL
PRT185 (ELSECDSNPCRNGGSCKDQEDGYHCLCPPGYYGLHCE; listed as Homo sapiens),MIC,[1],50 µg/mL
same,MIC (μg/mL) E. coli BL21,[2]; [22],25 µg/mL
same,MIC (μg/mL) P. aeruginosa,[3]; [32],12.5 µg/mL
same,MIC (μg/mL) K. pneumonia,[4]; [33],25 µg/mL
same,MIC (μg/mL) E. cloacae,[5]; [34],50 µg/mL
same,MIC (μg/mL) A. hydrophila,[6]; [35],25 µg/mL
same,MIC (μg/mL) C. diversus,[7]; [36],12.5 µg/mL
same,MIC (μg/mL) M. catarrhalis,[8]; [37],50 µg/mL
same,MIC (μg/mL) P. mirabilis,[9]; [38],12.5 µg/mL
same,MIC (μg/mL) P. vulgaris,[10]; [39],12.5 µg/mL
same,MIC (μg/mL) S. marcescens,[11]; [40],50 µg/mL
PRT536 (CECHPTGATGPHCSPEGGQCPCQPNVIGRQCTRCATGHYGFPRCKP; listed as Homo sapiens),MIC,[1],12.5 µg/mL
same,MIC against E. coli BL21,"[2]; 96-well plate, 37° C., 10 h",50 µg/mL
same,MIC against P. aeruginosa,"[3]; 96-well plate, 37° C., 10 h",12.5 µg/mL
same,MIC against K. pneumonia,"[4]; 96-well plate, 37° C., 10 h",50 µg/mL
same,MIC against E. cloacae,"[5]; 96-well plate, 37° C., 10 h",12.5 µg/mL
same,MIC against A. hydrophila,"[6]; 96-well plate, 37° C., 10 h",50 µg/mL
same,MIC against C. diversus,"[7]; 96-well plate, 37° C., 10 h",12.5 µg/mL
same,MIC against M. catarrhalis,"[8]; 96-well plate, 37° C., 10 h",50 µg/mL
same,MIC against P. mirabilis,"[9]; 96-well plate, 37° C., 10 h",12.5 µg/mL
same,MIC against P. vulgaris,"[10]; 96-well plate, 37° C., 10 h",50 µg/mL
same,MIC against S. marcescens,"[11]; 96-well plate, 37° C., 10 h",12.5 µg/mL
PRT1400 (VCSVDCGTHGVCIGGACRCEEGWTGAACD; listed as Homo sapiens),MIC,[1],50 µg/mL
same,MIC against E. coli BL21,[2]; [22],12.5 µg/mL
same,MIC against P. aeruginosa,[3]; [23],50 µg/mL
same,MIC against K. pneumonia,[4]; [24],12.5 µg/mL
same,MIC against E. cloacae,[5]; [25],25 µg/mL
same,MIC against A. hydrophila,[6]; [26],50 µg/mL
same,MIC against C. diversus,[7]; [27],12.5 µg/mL
same,MIC against M. catarrhalis,[8]; [28],50 µg/mL
same,MIC against P. mirabilis,[9]; [29],12.5 µg/mL
same,MIC against P. vulgaris,[10]; [30],12.5 µg/mL
same,MIC against S. marcescens,[11]; [31],25 µg/mL

# Source: patent US9833497B2, “Human originated EGF domain proteins and use of the same” (CHENGDU SOURCEBIO LIMITED-LIABILITY COMPANY, priority 2013, dated 2017)
